{"source": "paper PMC6372667", "about": "(Experimental & Molecular Medicine, 2019)", "key": {"[1]": {"target": "T1, BACE1 (human recombinant β-secretase) (Homo sapiens, UniProt P56817)", "T1 sequence (P56817 46-501)": "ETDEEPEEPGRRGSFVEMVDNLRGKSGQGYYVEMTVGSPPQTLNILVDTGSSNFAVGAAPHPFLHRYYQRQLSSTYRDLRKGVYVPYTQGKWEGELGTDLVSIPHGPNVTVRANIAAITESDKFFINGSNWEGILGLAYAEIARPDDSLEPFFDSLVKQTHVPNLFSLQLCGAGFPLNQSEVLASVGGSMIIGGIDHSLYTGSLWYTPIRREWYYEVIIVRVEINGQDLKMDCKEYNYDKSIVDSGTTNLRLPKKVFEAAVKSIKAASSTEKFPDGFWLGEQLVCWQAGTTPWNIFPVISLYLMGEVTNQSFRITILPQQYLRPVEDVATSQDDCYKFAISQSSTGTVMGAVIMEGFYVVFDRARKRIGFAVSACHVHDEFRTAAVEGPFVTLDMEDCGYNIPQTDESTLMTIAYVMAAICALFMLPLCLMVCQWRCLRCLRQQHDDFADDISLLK", "assay": "In vitro BACE1 FRET enzyme assay", "type": "biochemical", "conditions": "mean ± S.D. of three experiments", "description": "(§1) BACE1 (human recombinant β-secretase) ([…]) and the BACE1 FRET (fluorescence resonance energy transfer) assay kit Red were purchased from ThermoFisher Scientific (P2985; Waltham, MA, USA). […] For the cell culture experiment, Dulbecco’s modified Eagle’s medium (DMEM), Opti-MEM, fetal bovine serum (FBS), and penicillin/streptomycin were obtained from Capricorn Scientific (Ebsdorfergrund, Germany). β-secretase inhibitor III (β-SI) was purchased from Calbiochem (Darmstadt, Germany). The protease inhibitor mixture (a mixture of AEBSF, pepstatin A, E-64, bestain, leupeptin, and aprotinin) was purchased from Sigma-Aldrich (St. Louis, MO, USA). Enzyme-linked immunosorbent assay (ELISA) kits for Aβ40 and Aβ42 were obtained from IBL (Kunma, Japan). All chemicals and solvents used were reagent grade, purchased from commercial sources, and used as received.\nThe BACE1 FRET assay was carried out according to the manufacturer’s instructions with slight modifications as previously described. The assay was performed in a […] black plate using a multi-pipette."}, "Electric eel AChE [2]": {"target": "T2, Electric eel AChE (Electrophorus electricus, UniProt O42275)", "T2 construct": "purchased Sigma-Aldrich Co", "T2 sequence (O42275 24-633)": "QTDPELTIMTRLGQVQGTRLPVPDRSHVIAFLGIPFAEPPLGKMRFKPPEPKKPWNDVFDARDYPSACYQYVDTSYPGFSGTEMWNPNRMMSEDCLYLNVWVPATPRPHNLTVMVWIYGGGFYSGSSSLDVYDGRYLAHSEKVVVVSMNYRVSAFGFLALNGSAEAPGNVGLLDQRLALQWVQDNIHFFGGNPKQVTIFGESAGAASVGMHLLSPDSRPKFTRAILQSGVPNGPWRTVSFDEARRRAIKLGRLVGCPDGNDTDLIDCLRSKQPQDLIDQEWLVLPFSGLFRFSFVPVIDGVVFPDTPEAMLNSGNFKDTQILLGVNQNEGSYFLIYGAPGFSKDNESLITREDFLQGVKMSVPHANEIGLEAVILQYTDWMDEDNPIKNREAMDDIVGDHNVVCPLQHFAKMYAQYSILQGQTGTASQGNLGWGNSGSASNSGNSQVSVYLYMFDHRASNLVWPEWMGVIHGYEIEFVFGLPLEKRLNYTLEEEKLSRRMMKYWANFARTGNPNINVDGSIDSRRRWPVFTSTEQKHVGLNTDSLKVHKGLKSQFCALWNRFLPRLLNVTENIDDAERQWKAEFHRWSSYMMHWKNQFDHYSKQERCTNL", "assay": "In vitro cholinesterase enzyme assay (Ellman), AChE", "type": "biochemical", "description": "as §1\n(§2) The inhibitory activities of pterosin derivatives against cholinesterases were measured using the method developed by Ellman et al.[32]. The reaction mixture contained 140 μL of sodium phosphate buffer (pH 8.0), 20 μL of test sample solution (final concentration of the compound 100 μM), and 20 μL of AChE or BChE solution, mixed and incubated for 15 min at room temperature. […] The reactions were initiated following the addition of 10 μL of DTNB and 10 μL of acetyl thiocholine iodide for the AChE assay or butyryl thiocholine chloride for the BChE assay in 96-well microplates, which were incubated for 15 min."}, "horse serum BChE [3]": {"target": "T3, horse serum BChE (Equus caballus, UniProt P81908)", "T3 construct": "horse serum BChE (EC 3.1.1.8); purchased Sigma-Aldrich Co; host or cells: horse serum", "T3 sequence (P81908 whole entry)": "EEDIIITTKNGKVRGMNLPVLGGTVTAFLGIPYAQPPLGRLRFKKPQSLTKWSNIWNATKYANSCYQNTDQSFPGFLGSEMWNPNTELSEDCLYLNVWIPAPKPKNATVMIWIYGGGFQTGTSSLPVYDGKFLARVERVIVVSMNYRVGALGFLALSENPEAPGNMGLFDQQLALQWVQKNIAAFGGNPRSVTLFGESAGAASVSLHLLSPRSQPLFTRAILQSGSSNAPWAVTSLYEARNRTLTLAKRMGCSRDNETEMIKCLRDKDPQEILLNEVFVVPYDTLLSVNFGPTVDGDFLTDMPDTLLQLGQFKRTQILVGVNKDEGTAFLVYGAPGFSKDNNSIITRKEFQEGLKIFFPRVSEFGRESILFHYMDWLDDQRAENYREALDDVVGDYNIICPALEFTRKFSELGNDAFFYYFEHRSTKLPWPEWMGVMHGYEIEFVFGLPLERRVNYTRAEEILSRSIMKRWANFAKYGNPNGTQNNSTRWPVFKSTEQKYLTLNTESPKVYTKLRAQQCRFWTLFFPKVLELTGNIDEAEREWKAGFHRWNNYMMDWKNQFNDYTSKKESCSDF", "assay": "In vitro cholinesterase enzyme assay (Ellman), BChE", "type": "biochemical", "description": "as §1, §2"}, "[4]": {"target": "T1, BACE1 (human recombinant β-secretase)", "assay": "Kinetic analysis of BACE1 inhibition (Dixon and Lineweaver−Burk plots)", "type": "biochemical", "procedure": "(§3) The Ki was determined by interpretation of the Dixon plot, with the value of the x-axis intercept taken as −Ki.\nDixon plots for BACE1 inhibition by pterosin derivatives.\nDixon plots for BACE1 inhibition by pteroside derivatives."}, "Electric eel AChE [5]": {"target": "T2, Electric eel AChE", "assay": "Kinetic analysis of AChE inhibition (Dixon and Lineweaver−Burk plots)", "type": "biochemical", "procedure": "as §3\nDixon plots for AChE inhibition by pterosin derivatives. (2S,3R)-Pterosin C (A), (2R,3R)-pterosin C (B), and (2R)-pterosin B (C) were tested in the presence of substrate concentrations of 0.1 mM (●), 0.3 mM (○), and 0.6 mM (▼). Lineweaver-Burk plots for AChE inhibition were generated with inhibitor concentrations of 0 µM (Δ), 4 µM (▼), 20 µM (○), and 100 µM (●) for (2S,3R)-pterosin C (D) and (2R,3R)-pterosin C (E); and 0 µM (Δ), 2 µM (▼), 10 µM (○), and 50 µM (●) for (2R)-pterosin B (F).\nDixon plots for AChE inhibition by pteroside derivatives. (2R)-pteroside B (A), (2R,3R)-pteroside C (B), and (3S)-pteroside D (C) were tested in the presence of substrate concentrations of 0.1 mM (●), 0.3 mM (○), and 0.6 mM (▼). Lineweaver-Burk plots for AChE inhibition were generated with inhibitor concentrations of 0 µM (Δ), 0.8 µM (▼), 4 µM (○), and 20 µM (●) for (2R)-pteroside B (D), (2R,3R)-pteroside C (E), and (3S)-pteroside D (F)."}, "horse serum BChE [6]": {"target": "T3, horse serum BChE", "assay": "Kinetic analysis of BChE inhibition (Dixon and Lineweaver−Burk plots)", "type": "biochemical", "procedure": "as §3\nDixon plots for BChE inhibition by pterosin derivatives. (2S,3R)-Pterosin C (A), (2R,3R)-pterosin C (B), and (2R)-pterosin B (C) were tested in the presence of substrate concentrations of 0.2 mM (●), 0.4 mM (○), and 0.8 mM (▼).\nDixon plots for BChE inhibition by pteroside derivatives. (2R)-pteroside B (A), (2R,3R)-pteroside C (B), and (3S)-pteroside D (C) were tested in the presence of substrate concentrations of 0.2 mM (●), 0.4 mM (○), and 0.8 mM (▼). Lineweaver-Burk plots for BChE inhibition were generated with inhibitor concentrations of 0 µM (Δ), 4 µM (▼), 20 µM (○), and 100 µM (●) for (2R)-pteroside B (D); 0 µM (Δ), 0.8 µM (▼), 4 µM (○), and 20 µM (●) for (2R,3R)-pteroside C (E) and (3S)-pteroside D (F)."}, "in vitro": {"assay": "in vitro", "type": "in vitro ADME", "procedure": "PAMPA (parallel artificial membrane permeation assay) was used as a high-throughput assay to predict BBB permeation. Porcine polar brain lipid (PBL) was used as an artificial membrane to predict BBB permeation. Initially, the test compound was dissolved in DMSO at 5 mg/mL. This compound stock solution (10 µL) was diluted 200-fold in a universal buffer at pH 7.4 and mixed with a multi 8-channel pipette to obtain the secondary stock solution (final concentration 25 µg/mL). The secondary stock solution (200 µL) was placed in the donor wells. The filter membrane was coated with PBL in dodecane (4 mL volume of 20 mg/mL PBL in dodecane), and 5 µL of BBB-1 lipid solution was spread on PBL by pipette. The acceptor well was filled with […] of Acceptor Sink Buffer. The acceptor filter plate was cautiously positioned on the donor plate to assemble a “sandwich” (comprising an aqueous acceptor, artificial lipid membrane and aqueous donor with test compound on the top, middle and bottom, respectively). The test compound diffuses from the donor well to the acceptor well through the lipid membrane. After 4 h of incubation at pH 7.4 and 25 °C, the concentration of the compound in the acceptor, donor, reference and blank wells was estimated with a UV plate reader, Epoch Microplate Spectrophotometer (BioTek Instruments, Inc., Winooski, VT, USA). […] Samples were analyzed in quadruplets, and the average of the four runs was reported. To monitor the consistency of the analysis set, quality control standards were run with each sample set.\nPAMPA-BBB, an in vitro artificial membrane permeability assay for the BBB, is one of the most reliable physicochemical screening tools in the early stage discovery of CNS-targeted drugs. The PAMPA-BBB system models the transcellular passive diffusion of chemicals across the BBB and measures strictly passive transport mechanisms via an artificial lipid membrane on effective permeability (Pe, cm/s)."}, "[7]": {"tested_on": "SH-SY5Y human neuroblastoma", "assay": "MTT cytotoxicity assay, SH-SY5Y", "type": "cell-based", "conditions": "24 h", "procedure": "(§4) Cytotoxicity was assessed using the MTT assay. Briefly, the cells were seeded into a 96-well plate at a density of 1×10^5 cells per well in 100 µL of corresponding media and incubated at 37 °C in an incubator under 5% CO2 tension for 24 h. The culture media were then replaced with 100 µL of fresh serum-free media in the presence of varied concentrations of pterosin derivatives, and cells were incubated for an additional 24 h. The control was treated with an equal amount of DMSO present in the assay for a 5 mM concentration. Then, 100 µL of MTT solution (0.5 mg/mL in Phosphate Buffered Saline (PBS)) was added to each culture. To measure the proportion of surviving cells, the media were replaced with 100 µL of DMSO 2 h after the administration of MTT solution. The absorbance was measured at 570 nm using a spectrophotometric plate reader (Molecular Devices, Sunnyvale, CA, USA)."}, "C6 rat glial cells": {"tested_on": "C6 rat glial cells", "assay": "MTT cytotoxicity assay, C6", "type": "cell-based", "conditions": "24 h", "procedure": "as §4"}, "[8]": {"tested_on": "NIH3T3 mouse embryo fibroblasts", "assay": "MTT cytotoxicity assay, NIH3T3", "type": "cell-based", "conditions": "24 h", "procedure": "as §4"}, "B16F10 mouse melanoma": {"tested_on": "B16F10 mouse melanoma", "assay": "MTT cytotoxicity assay, B16F10", "type": "cell-based", "conditions": "24 h", "procedure": "as §4"}, "[9]": {"conditions": "mean ± S.D. of three experiments, read-out: IC50 AChE"}, "[10]": {"conditions": "mean ± S.D. of three experiments, read-out: IC50 BChE"}, "[11]": {"conditions": "Dixon and Lineweaver−Burk plots"}}, "note": "Like-named read-outs stand apart in the source and are kept apart here.", "data": [{"smiles": "Cc1cc2c(c(C)c1CCOC1OC(CO)C(O)C(O)C1O)C(=O)C(C)(C)C2O", "note": "[(3S)-Pteroside D, (3S)-pteroside D]", "values": [{"measurement": "IC50", "setting": "[1]", "value": "10.7 ± 1.5", "unit": "µM"}, {"measurement": "IC50", "setting": "Electric eel AChE [2]; [9]", "value": "27.4 ± 1.2", "unit": "µM"}, {"measurement": "IC50", "setting": "horse serum BChE [3]; [10]", "value": "19.3 ± 0.17", "unit": "µM"}, {"measurement": "Inhibition type BACE1", "setting": "[4]; [11]", "value": "Mixed-type"}, {"measurement": "Ki", "setting": "[4]; determined by Dixon plot, read-out: Ki BACE1", "value": 16.5, "unit": "µM"}, {"measurement": "Inhibition type AChE", "setting": "Electric eel AChE [5]; [11]", "value": "Mixed-type"}, {"measurement": "Ki", "setting": "Electric eel AChE [5]; determined by Dixon plot, read-out: Ki AChE", "value": 23.1, "unit": "µM"}, {"measurement": "Inhibition type BChE", "setting": "horse serum BChE [6]; [11]", "value": "Mixed-type"}, {"measurement": "Ki", "setting": "horse serum BChE [6]; determined by Dixon plot, read-out: Ki BChE", "value": 19.7, "unit": "µM"}, {"measurement": "BBB permeation class", "setting": "in vitro; PAMPA-BBB, classified by Pe, given in words", "value": "very low BBB permeability"}, {"measurement": "LD50 Based on MTT Assay, SY-SY5Y", "setting": "[7]", "value": "1,320 ± 86 µM"}, {"measurement": "LD50 Based on MTT Assay, C6", "setting": "C6 rat glial cells", "value": ">5,000 µM"}, {"measurement": "LD50 Based on MTT Assay, NIH3T3", "setting": "[8]", "value": ">5,000 µM"}, {"measurement": "LD50 Based on MTT Assay, B16F10", "setting": "B16F10 mouse melanoma", "value": ">5,000 µM"}]}, {"smiles": "Cc1c(CCO[C@@H]2O[C@H](CO)[C@@H](O)[C@H](O)[C@H]2O)c(CO)cc2c1C(=O)[C@@H](C)C2", "note": "[(2S)-Pteroside P, (2S)-pteroside P]", "values": [{"measurement": "IC50", "setting": "[1]", "value": "> 125", "unit": "µM"}, {"measurement": "IC50 BACE1", "setting": "[1]", "value": "inactive at the concentrations tested"}, {"measurement": "IC50", "setting": "Electric eel AChE [2]; [9]", "value": "57.5 ± 3.2", "unit": "µM"}, {"measurement": "IC50", "setting": "horse serum BChE [3]; [10]", "value": "33.2 ± 3", "unit": "µM"}, {"measurement": "LD50 Based on MTT Assay, SY-SY5Y", "setting": "[7]", "value": "1,090 ± 99 µM"}, {"measurement": "LD50 Based on MTT Assay, C6", "setting": "C6 rat glial cells", "value": ">5,000 µM"}, {"measurement": "LD50 Based on MTT Assay, NIH3T3", "setting": "[8]", "value": ">5,000 µM"}, {"measurement": "LD50 Based on MTT Assay, B16F10", "setting": "B16F10 mouse melanoma", "value": ">5,000 µM"}]}, {"smiles": "Cc1cc2c(c(C)c1CCO)C(=O)C(C)(C)C2", "note": "[Pterosin Z, pterosin Z]", "values": [{"measurement": "IC50", "setting": "[1]", "value": "80 ± 5.9", "unit": "µM"}, {"measurement": "IC50", "setting": "Electric eel AChE [2]", "value": "46.5 ± 3.4", "unit": "µM"}, {"measurement": "IC50", "setting": "horse serum BChE [3]", "value": "80.1 ± 6.8", "unit": "µM"}, {"measurement": "LD50 Based on MTT Assay, SY-SY5Y", "setting": "[7]", "value": "495 ± 24", "unit": "µM"}, {"measurement": "LD50 Based on MTT Assay, C6", "setting": "C6 rat glial cells", "value": "1,850 ± 65 µM"}, {"measurement": "LD50 Based on MTT Assay, NIH3T3", "setting": "[8]", "value": "553 ± 37", "unit": "µM"}, {"measurement": "LD50 Based on MTT Assay, B16F10", "setting": "B16F10 mouse melanoma", "value": "618 ± 71", "unit": "µM"}]}, {"smiles": "Cc1cc2c(c(C)c1CCO[C@@H]1O[C@H](CO)[C@@H](O)[C@H](O)[C@H]1O)C(=O)C(C)(C)C2", "note": "[Pteroside Z, pteroside Z]", "values": [{"measurement": "IC50", "setting": "[1]", "value": "53.3 ± 1.2", "unit": "µM"}, {"measurement": "IC50", "setting": "Electric eel AChE [2]; [9]", "value": "24.1 ± 1.1", "unit": "µM"}, {"measurement": "IC50", "setting": "horse serum BChE [3]; [10]", "value": "5.31 ± 0.19", "unit": "µM"}, {"measurement": "Papp at 4 h, 25 µg/mL", "setting": "in vitro; pig, PAMPA, 4 h, pH 7.4, 25 °C, mean ± SD of quadruple experiments, read-out: PAMPA-BBB permeability Pe", "value": "6.1 ± 1.7", "unit": "nm/s"}, {"measurement": "LD50 Based on MTT Assay, SY-SY5Y", "setting": "[7]", "value": "1,430 ± 210 µM"}, {"measurement": "LD50 Based on MTT Assay, C6", "setting": "C6 rat glial cells", "value": "2,130 ± 62 µM"}, {"measurement": "LD50 Based on MTT Assay, NIH3T3", "setting": "[8]", "value": ">5,000 µM"}, {"measurement": "LD50 Based on MTT Assay, B16F10", "setting": "B16F10 mouse melanoma", "value": ">5,000 µM"}]}]}
